Reference: patent US8389511B2, “Bicyclic heterocyclic derivative” (Dainippon Sumitomo Pharma Co., Ltd., priority 2007, dated 2013)
Structures can show the parent of a compound that is named as a salt.

Biological target: T1, Recombinant human renin (Homo sapiens, UniProt P00797)
T1 sequence (P00797 67-406): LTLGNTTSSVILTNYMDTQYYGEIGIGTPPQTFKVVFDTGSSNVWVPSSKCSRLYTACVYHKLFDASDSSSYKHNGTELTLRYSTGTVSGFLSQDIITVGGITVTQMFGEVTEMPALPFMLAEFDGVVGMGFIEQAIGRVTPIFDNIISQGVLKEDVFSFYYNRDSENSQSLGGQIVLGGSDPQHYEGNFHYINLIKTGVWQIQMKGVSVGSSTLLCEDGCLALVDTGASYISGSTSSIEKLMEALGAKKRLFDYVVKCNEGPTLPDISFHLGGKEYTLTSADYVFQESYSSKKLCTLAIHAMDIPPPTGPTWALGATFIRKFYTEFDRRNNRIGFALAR
Test: In vitro renin inhibitory activity assay (fluorescence, EDANS/DABCYL peptide substrate)
Assay type: biochemical
Conditions: recombinant human renin (50 ng), 0.1M HEPES buffer pH 7.4, substrate 4 μM, 37° C., one hour, fluorescence 340/500 nm
Method: In Vitro Renin Inhibitory Activity Assay
Recombinant human renin (50 ng) was reacted in 0.1M HEPES buffer (pH 7.4) containing 0.1M NaCl, 1 mM EDTA and 0.1 mg/mL BSA together with a substrate and a test compound at 37° C. for one hour. As the substrate, Arg-Glu(EDANS)-[…]DABCYL)-Arg or DABCYL-γ-Abu-[…]EDANS was added in such an amount so that the final concentration thereof became 4 μM. The elevated fluorescence intensity at the exciting wavelength 340 nm and the fluorescence wavelength 500 nm was measured by a fluorescence plate reader.

Row | IC50 [nM] | Compound
1 | 0.7 | COCCCN1C(=O)C(C)(C)Oc2cc(Br)c(C(=O)N(C(C)C)[C@@H]3CCCNC3)cc21 [Example 1, 7-Bromo-N-isopropyl-4-(3-methoxypropyl)-2,2-dimethyl-3-oxo-N-[(3R)-piperidin-3-yl]-3,4-dihydro-2H-1,4-benzoxazine-6-carboxamide hydrochloride]
2 | 11 | COCCCN1C(=O)[C@@H](C)Oc2cc(C)c(C(=O)N(C(C)C)[C@@H]3CCCNC3)cc21 [Example 18]
3 | 0.8 | COC(=O)NCCN1C(=O)[C@](C)(c2cc(F)cc(F)c2)Oc2cc(Cl)c(C(=O)N(C(C)C)[C@@H]3CCCNC3)cc21 [Example 30]
4 | 0.2 | COC(=O)NCCN1C(=O)[C@](C)(c2cc(F)cc(F)c2)Oc2cc(Br)c(C(=O)N(C(C)C)[C@@H]3CCCNC3)cc21 [Example 36]
5 | 8.4 | COCCCCN1C(=O)C2(CCOCC2)Oc2cc(C)c(C(=O)N(C(C)C)[C@@H]3CCCNC3)cc21 [Example 48]
6 | 0.7 | COCCCCN1C(=O)[C@@H](C)Oc2cc(C(F)(F)F)c(C(=O)N(C(C)C)[C@@H]3CCCNC3)cc21 [Example 66]
7 | 19.2 | CCc1cc2c(cc1C(=O)N(C(C)C)[C@@H]1CCCNC1)N(CCCCOC)C(=O)C(C)(C)O2 [Example 79]
8 | 4.6 | CCc1cc2c(cc1C(=O)N(C(C)C)[C@@H]1CCCNC1)N(CCNC(=O)OC)C(=O)C(C)(C)O2 [Example 80]
9 | 4 | COCCCCN1C(=O)C(C)(C)Oc2cc(C#N)c(C(=O)N(C(C)C)[C@@H]3CCCNC3)cc21 [Example 162]
10 | 82 | COCCCCN1C(=O)C(C)(C)Oc2cc(C(F)(F)F)c(C(=O)N(C(C)C)C3CCNC3)cc21 (centres unmarked) [Example 201, N-Isopropyl-4-(4-methoxybutyl)-2,2-dimethyl-3-oxo-N-pyrrolidine-3-yl-7-(trifluoromethyl)-3,4-dihydro-2H-1,4-benzoxazine-6-carboxamide hydrochloride]
11 | 1.3 | CCC(=O)NCCN1C(=O)C(C)(C)Oc2cc(C(F)(F)F)c(C(=O)N(C3CCC3)[C@@H]3CCCNC3)cc21 [Example 202]
12 | 17.4 | COCCCCN1C(=O)C(C2CCOCC2)Oc2cc(C(F)(F)F)c(C(=O)N(C(C)C)C3CCCNC3)cc21 (centres unmarked) [Example 205]
13 | 2 | COC(=O)NCCN1C(=O)C(C)(COc2ccccc2)Oc2cc(C(F)(F)F)c(C(=O)N(C(C)C)C3CCCNC3)cc21 (centres unmarked) [Example 209]
14 | 1.2 | COC(=O)NCCN1C(=O)C(C)(COc2cccc(OC)c2)Oc2cc(C(F)(F)F)c(C(=O)N(C(C)C)C3CCCNC3)cc21 (centres unmarked) [Example 210]
15 | 1.7 | COCCCCN1C(=O)C(C)(COCCOC)Oc2cc(C(F)(F)F)c(C(=O)N(C(C)C)C3CCCNC3)cc21 (centres unmarked) [Example 212]
16 | 1.1 | CCOC(=O)COCC1(C)Oc2cc(C(F)(F)F)c(C(=O)N(C(C)C)C3CCCNC3)cc2N(CCCCOC)C1=O (centres unmarked) [Example 216]
17 | 1.8 | COCCCCN1C(=O)C(C)(CO)Oc2cc(C(F)(F)F)c(C(=O)N(C(C)C)C3CCCNC3)cc21 (centres unmarked) [Example 217]
18 | 0.6 | CCC(=O)NCCN1C(=O)C(C)(c2cccc(C#N)c2)Oc2cc(C(F)(F)F)c(C(=O)N(C(C)C)C3CCCNC3)cc21 (centres unmarked) [Example 224]
19 | 1.5 | CCC(=O)NCCN1C(=O)C(C)(c2cc(C#N)ccc2F)Oc2cc(C(F)(F)F)c(C(=O)N(C(C)C)C3CCCNC3)cc21 (centres unmarked) [Example 228]
20 | 0.3 | CCC(=O)NCCN1C(=O)C(C)(c2cccc(OS(C)(=O)=O)c2)Oc2cc(C(F)(F)F)c(C(=O)N(C(C)C)C3CCCNC3)cc21 (centres unmarked) [Example 229]
21 | 39 | CCC(=O)NCCN1C(=O)C(C)(C)Oc2cc(C(F)(F)F)c(C(=O)N(C(C)C)C3CNCCC3c3cccc(-c4ccccc4)c3)cc21 (centres unmarked) [Example 238]
22 | 2.2 | CCC(=O)NCCN1C(=O)C(C)(C)Oc2cc(C(F)(F)F)c(C(=O)N(CC)C3CNCCC3c3ccccc3)cc21 (centres unmarked) [Example 243]
23 | 23.8 | COCC(O)CCN1C(=O)C(C)(C)Oc2cc(C(F)(F)F)c(C(=O)N(C(C)C)C3CCCNC3)cc21 (centres unmarked) [Example 251]
24 | 1.5 | COCC(=O)CCN1C(=O)C(C)(C)Oc2cc(C(F)(F)F)c(C(=O)N(C(C)C)C3CCCNC3)cc21 (centres unmarked) [Example 252]
25 | 14 | COCCCCN1C(=O)C(C)(C)c2cc(Cl)c(C(=O)N(C(C)C)[C@@H]3CCCNC3)cc21 [Example 254, 5-Chloro-3,3-dimethyl-N-isopropyl-1-(4-methoxybutyl)-2-oxo-N-[(3R)-piperidin-3-yl] indoline-6-carboxamide hydrochloride]
26 | 20 | CCC(=O)NCCN1C(=O)C(C)(C)c2cc(Cl)c(C(=O)N(C(C)C)[C@@H]3CCCNC3)cc21 [Example 255, 5-Chloro-N-isopropyl-3,3-dimethyl-2-oxo-N-[(3R)-piperidin-3-yl]-1-[2-(propionylamino)ethyl]-indoline-6-carboxamide hydrochloride]
27 | 15 | CCn1c(=O)n(CCCCOC)c2cc(C(=O)N(C(C)C)[C@@H]3CCCNC3)c(C(F)(F)F)cc21 [Example 261]
28 | 30 | CCC(=O)NCCn1c(=O)n(CC)c2cc(C(F)(F)F)c(C(=O)N(C(C)C)[C@@H]3CCCNC3)cc21 [Example 262]
29 | 2.2 | CCC(=O)NCCN1C(=O)C(C)(C)Oc2cc(F)c(C(=O)N(CC)[C@H]3CNCC[C@@H]3c3cccc(OC)c3)cc21 [Example 265]
